In PMC9926475 (ACS chemical neuroscience, 2022):

Test: Pharmacokinetic studies in plasma and brain of mice after i.p. injection
Assay type: in vivo, mouse
Conditions: both sexes, i.p. 5 mg/kg; LLOQ 5.0 ng/ml

SMILES	Brain level at 4 h post-treatment
N[C@]1(c2ccccc2Cl)C[C@H](O)CCC1=O [(2S,4R)-HNK]	below LLOQs

Same assay, conditions: female CD-1 mice, i.p. 5 mg/kg, normalized to free base dose

SMILES	Cmax (mean ± SEM) Brain [ng/g•mg/kg]
N[C@]1(c2ccccc2Cl)C[C@H](O)CCC1=O [(2S,4R)-HNK]	190± 13.7
N[C@]1(c2ccccc2Cl)CC[C@@H](O)CC1=O [(2S,5R)-HNK]	258 ± 15.4
N[C@@]1(c2ccccc2Cl)C[C@H](O)CCC1=O [(2R,4R)-HNK]	490 ± 26.4
N[C@]1(c2ccccc2Cl)C[C@@H](O)CCC1=O [(2S,4S)-HNK]	234 ± 10.9
N[C@@]1(c2ccccc2Cl)CC[C@H](O)CC1=O [(2R,5S)-HNK]	154 ± 3.9
N[C@@]1(c2ccccc2Cl)C[C@@H](O)CCC1=O [(2R,4S)-HNK]	495 ± 28.7
N[C@@]1(c2ccccc2Cl)CC[C@@H](O)CC1=O [(2R,5R)-HNK]	152 ± 8.8

Same assay, conditions: female mice, i.p. 5 mg/kg

SMILES	B:P ratio (brain to plasma AUC ratio)	t1/2 Brain (terminal half-life) [min]	t1/2 Plasma (terminal half-life) [min]
N[C@]1(c2ccccc2Cl)C[C@H](O)CCC1=O [(2S,4R)-HNK]	1.0	21	47
N[C@]1(c2ccccc2Cl)CC[C@@H](O)CC1=O [(2S,5R)-HNK]	1.0	31	28
N[C@@]1(c2ccccc2Cl)C[C@H](O)CCC1=O [(2R,4R)-HNK]	1.2	29	29
N[C@]1(c2ccccc2Cl)C[C@@H](O)CCC1=O [(2S,4S)-HNK]	0.9	35	42
N[C@@]1(c2ccccc2Cl)CC[C@H](O)CC1=O [(2R,5S)-HNK]	1.0	27	29
N[C@@]1(c2ccccc2Cl)C[C@@H](O)CCC1=O [(2R,4S)-HNK]	1.0	15	44
N[C@@]1(c2ccccc2Cl)CC[C@@H](O)CC1=O [(2R,5R)-HNK]	1.4	28	31

Same assay, conditions: females, but not males, i.p. 5 mg/kg; LLOQ 5.0 ng/ml

SMILES	Brain level at 4 h post-treatment
N[C@@]1(c2ccccc2Cl)C[C@@H](O)CCC1=O [(2R,4S)-HNK]	below LLOQs

Same assay, conditions: male CD-1 mice, i.p. 5 mg/kg, normalized to free base dose

SMILES	Cmax (mean ± SEM) Brain [ng/g•mg/kg]
N[C@]1(c2ccccc2Cl)C[C@H](O)CCC1=O [(2S,4R)-HNK]	160 ± 10.2
N[C@]1(c2ccccc2Cl)CC[C@@H](O)CC1=O [(2S,5R)-HNK]	242 ± 9.8
N[C@@]1(c2ccccc2Cl)C[C@H](O)CCC1=O [(2R,4R)-HNK]	431 ± 43.5
N[C@]1(c2ccccc2Cl)C[C@@H](O)CCC1=O [(2S,4S)-HNK]	127 ± 9.5
N[C@@]1(c2ccccc2Cl)CC[C@H](O)CC1=O [(2R,5S)-HNK]	106 ± 6.8
N[C@@]1(c2ccccc2Cl)C[C@@H](O)CCC1=O [(2R,4S)-HNK]	758 ± 21.4
N[C@@]1(c2ccccc2Cl)CC[C@@H](O)CC1=O [(2R,5R)-HNK]	142 ± 5.6

Same assay, conditions: male mice, i.p. 5 mg/kg

SMILES	B:P ratio (brain to plasma AUC ratio)	t1/2 Brain (terminal half-life) [min]	t1/2 Plasma (terminal half-life) [min]	Tmax brain [min]
N[C@]1(c2ccccc2Cl)C[C@H](O)CCC1=O [(2S,4R)-HNK]	0.9	23	48	
N[C@]1(c2ccccc2Cl)CC[C@@H](O)CC1=O [(2S,5R)-HNK]	0.7	40	37	30
N[C@@]1(c2ccccc2Cl)C[C@H](O)CCC1=O [(2R,4R)-HNK]	1.3	38	35	
N[C@]1(c2ccccc2Cl)C[C@@H](O)CCC1=O [(2S,4S)-HNK]	0.7	34	39	
N[C@@]1(c2ccccc2Cl)CC[C@H](O)CC1=O [(2R,5S)-HNK]	0.9	27	28	
N[C@@]1(c2ccccc2Cl)C[C@@H](O)CCC1=O [(2R,4S)-HNK]	1.1	32	39	
N[C@@]1(c2ccccc2Cl)CC[C@@H](O)CC1=O [(2R,5R)-HNK]	1.2	27	30	

Same assay, conditions: standard t-test; F female, M male, NS not statistically different

SMILES	Sex-dependent difference: Brain Total exposure (AUC)	Sex-dependent difference: Plasma Total exposure (AUC)
N[C@]1(c2ccccc2Cl)CC[C@@H](O)CC1=O [(2S,5R)-HNK]	M > F	M > F
N[C@@]1(c2ccccc2Cl)C[C@H](O)CCC1=O [(2R,4R)-HNK]	M > F	M > F
N[C@]1(c2ccccc2Cl)C[C@@H](O)CCC1=O [(2S,4S)-HNK]	F > M	F > M
N[C@@]1(c2ccccc2Cl)CC[C@H](O)CC1=O [(2R,5S)-HNK]	F > M	F > M
N[C@@]1(c2ccccc2Cl)C[C@@H](O)CCC1=O [(2R,4S)-HNK]	M > F	M > F
N[C@@]1(c2ccccc2Cl)CC[C@@H](O)CC1=O [(2R,5R)-HNK]		M > F
